# Data from ChEMBL document CHEMBL3352227, “Synthesis, antimycobacterial and antibacterial evaluation of l-[(1R, 2S)-2-fluorocyclopropyl]fluoroquinolone derivatives containing an oxime functional moiety” (Eur J Med Chem, 2014).
# Tests used:
# [1] = tested on: Mycobacterium tuberculosis; test: Antimycobacterial activity against Mycobacterium tuberculosis H37Rv ATCC 27294 by MABA method; type: functional
# [2] = tested on: Escherichia coli; test: Antibacterial activity against Escherichia coli ATCC 25922 after 18 to 24 hrs by standard twofold serial dilution method; type: functional
# [3] = tested on: Escherichia coli; test: Antibacterial activity against Escherichia coli 12-1 after 18 to 24 hrs by standard twofold serial dilution method; type: functional
# [4] = tested on: Escherichia coli; test: Antibacterial activity against extended-spectrum beta-lactamase producing Escherichia coli 12-2 after 18 to 24 hrs by standard twofold serial dilution method; type: functional
# [5] = tested on: Escherichia coli; test: Antibacterial activity against extended-spectrum beta-lactamase producing Escherichia coli 12-3 after 18 to 24 hrs by standard twofold serial dilution method; type: functional
# [6] = tested on: Escherichia coli; test: Antibacterial activity against extended-spectrum beta-lactamase producing Escherichia coli 12-14 after 18 to 24 hrs by standard twofold serial dilution method; type: functional
# [7] = tested on: Escherichia coli; test: Antibacterial activity against extended-spectrum beta-lactamase producing Escherichia coli 12-15 after 18 to 24 hrs by standard twofold serial dilution method; type: functional
# [8] = tested on: Klebsiella pneumoniae; test: Antibacterial activity against Klebsiella pneumoniae 12-1 after 18 to 24 hrs by standard twofold serial dilution method; type: functional
# [9] = tested on: Klebsiella pneumoniae; test: Antibacterial activity against Klebsiella pneumoniae 12-2 after 18 to 24 hrs by standard twofold serial dilution method; type: functional
# [10] = tested on: Klebsiella pneumoniae; test: Antibacterial activity against Klebsiella pneumoniae 12-4 after 18 to 24 hrs by standard twofold serial dilution method; type: functional
# [11] = tested on: Klebsiella pneumoniae; test: Antibacterial activity against extended-spectrum beta-lactamase producin Klebsiella pneumoniae 12-3 after 18 to 24 hrs by standard twofold serial dilution method; type: functional
# [12] = tested on: Klebsiella pneumoniae; test: Antibacterial activity against extended-spectrum beta-lactamase producin Klebsiella pneumoniae 12-4 after 18 to 24 hrs by standard twofold serial dilution method; type: functional
# [13] = tested on: Klebsiella pneumoniae; test: Antibacterial activity against extended-spectrum beta-lactamase producin Klebsiella pneumoniae 12-7 after 18 to 24 hrs by standard twofold serial dilution method; type: functional
# [14] = tested on: Klebsiella pneumoniae; test: Antibacterial activity against extended-spectrum beta-lactamase producin Klebsiella pneumoniae 12-14 after 18 to 24 hrs by standard twofold serial dilution method; type: functional
# [15] = tested on: Pseudomonas aeruginosa; test: Antibacterial activity against Pseudomonas aeruginosa 12-12 after 18 to 24 hrs by standard twofold serial dilution method; type: functional
# [16] = tested on: Pseudomonas aeruginosa; test: Antibacterial activity against Pseudomonas aeruginosa 12-14 after 18 to 24 hrs by standard twofold serial dilution method; type: functional
# [17] = tested on: Staphylococcus aureus; test: Antibacterial activity against Staphylococcus aureus ATCC 25923 after 18 to 24 hrs by standard twofold serial dilution method; type: functional
# [18] = tested on: Staphylococcus aureus; test: Antibacterial activity against methicillin-sensitive Staphylococcus aureus 12-1 after 18 to 24 hrs by standard twofold serial dilution method; type: functional
# [19] = tested on: Staphylococcus aureus; test: Antibacterial activity against methicillin-sensitive Staphylococcus aureus 12-2 after 18 to 24 hrs by standard twofold serial dilution method; type: functional
# [20] = tested on: Staphylococcus aureus; test: Antibacterial activity against methicillin-sensitive Staphylococcus aureus 12-4 after 18 to 24 hrs by standard twofold serial dilution method; type: functional
# [21] = tested on: Staphylococcus aureus; test: Antibacterial activity against methicillin-sensitive Staphylococcus aureus 12-5 after 18 to 24 hrs by standard twofold serial dilution method; type: functional
# [22] = tested on: Staphylococcus aureus; test: Antibacterial activity against methicillin-resistant Staphylococcus aureus 12-2 after 18 to 24 hrs by standard twofold serial dilution method; type: functional
# [23] = tested on: Staphylococcus aureus; test: Antibacterial activity against methicillin-resistant Staphylococcus aureus 12-4 after 18 to 24 hrs by standard twofold serial dilution method; type: functional
# [24] = tested on: Staphylococcus aureus; test: Antibacterial activity against methicillin-resistant Staphylococcus aureus 12-5 after 18 to 24 hrs by standard twofold serial dilution method; type: functional
# [25] = tested on: Staphylococcus epidermidis; test: Antibacterial activity against methicillin-sensitive Staphylococcus epidermidis 12-1 after 18 to 24 hrs by standard twofold serial dilution method; type: functional
# [26] = tested on: Staphylococcus epidermidis; test: Antibacterial activity against methicillin-sensitive Staphylococcus epidermidis 12-3 after 18 to 24 hrs by standard twofold serial dilution method; type: functional
# [27] = tested on: Staphylococcus epidermidis; test: Antibacterial activity against methicillin-sensitive Staphylococcus epidermidis 12-6 after 18 to 24 hrs by standard twofold serial dilution method; type: functional
# [28] = tested on: Staphylococcus epidermidis; test: Antibacterial activity against methicillin-sensitive Staphylococcus epidermidis 12-8 after 18 to 24 hrs by standard twofold serial dilution method; type: functional
# [29] = tested on: Staphylococcus epidermidis; test: Antibacterial activity against methicillin-resistant Staphylococcus epidermidis 12-1 after 18 to 24 hrs by standard twofold serial dilution method; type: functional
# [30] = tested on: Staphylococcus epidermidis; test: Antibacterial activity against methicillin-resistant Staphylococcus epidermidis 12-6 after 18 to 24 hrs by standard twofold serial dilution method; type: functional
# [31] = tested on: Streptococcus pneumoniae; test: Antibacterial activity against Streptococcus pneumoniae ATCC 49619 after 18 to 24 hrs by standard twofold serial dilution method; type: functional
# [32] = tested on: Streptococcus pneumoniae; test: Antibacterial activity against Streptococcus pneumoniae 12-18 after 18 to 24 hrs by standard twofold serial dilution method; type: functional
# [33] = tested on: Escherichia coli; test: Antibacterial activity against Escherichia coli 12-1 infected in mouse dosed orally twice at 0 and 6 hrs after infection; type: functional; conditions: 12-1, po
# [34] = tested on: Staphylococcus aureus; test: Antibacterial activity against methicillin-sensitive Staphylococcus aureus 12-1 infected in mouse dosed orally twice at 0 and 6 hrs after infection; type: functional; conditions: 12-1, po
# [35] = Solubility of the compound; type: physicochemical
# [36] = tested on: Staphylococcus epidermidis; test: Antibacterial activity against methicillin-resistant Staphylococcus epidermidis 12-1 infected in mouse dosed orally twice at 0 and 6 hrs after infection; type: functional; conditions: 12-1, po
# [37] = tested on: Staphylococcus aureus; test: Antibacterial activity against methicillin-resistant Staphylococcus aureus 12-5 infected in mouse dosed orally twice at 0 and 6 hrs after infection; type: functional; conditions: 12-5, po
# [38] = tested on: Streptococcus pneumoniae; test: Antibacterial activity against Streptococcus pneumoniae 12-10 infected in mouse dosed orally twice at 0 and 6 hrs after infection; type: functional; conditions: 12-10, po
# [39] = tested on: Klebsiella pneumoniae; test: Antibacterial activity against Klebsiella pneumoniae 12-1 infected in mouse dosed orally twice at 0 and 6 hrs after infection; type: functional; conditions: 12-1, po
Structure (SMILES),MIC [1] [µg/mL],MIC [2] [µg/mL],MIC [3] [µg/mL],MIC [4] [µg/mL],MIC [5] [µg/mL],MIC [6] [µg/mL],MIC [7] [µg/mL],MIC [8] [µg/mL],MIC [9] [µg/mL],MIC [10] [µg/mL],MIC [11] [µg/mL],MIC [12] [µg/mL],MIC [13] [µg/mL],MIC [14] [µg/mL],MIC [15] [µg/mL],MIC [16] [µg/mL],MIC [17] [µg/mL],MIC [18] [µg/mL],MIC [19] [µg/mL],MIC [20] [µg/mL],also measured
NCC1CN(c2nc3c(cc2F)c(=O)c(C(=O)O)cn3[C@@H]2C[C@@H]2F)C/C1=N/OCc1ccccc1 (stereo partly drawn),0.5,< 0.008,0.125,64,16,16,128,0.03,0.125,0.06,16,16,1,32,1,1,< 0.008,< 0.008,< 0.008,< 0.008,MIC [21]: < 0.008 µg/mL; MIC [22]: 1 µg/mL; MIC [23]: 2 µg/mL; MIC [24]: 1 µg/mL; MIC [25]: < 0.008 µg/mL; MIC [26]: < 0.008 µg/mL; MIC [27]: < 0.008 µg/mL; MIC [28]: 0.125 µg/mL; MIC [29]: 0.25 µg/mL; MIC [30]: 2 µg/mL; MIC [31]: 0.03 µg/mL; MIC [32]: 0.25 µg/mL; ED50 [33]: 18 mg/kg; ED50 [34]: 16.9 mg/kg; solubility [35]: 240 µg/mL
CO/N=C1/CCN(c2c(F)cc3c(=O)c(C(=O)O)cn([C@@H]4C[C@@H]4F)c3c2OC)CC1N (stereo partly drawn),0.25,0.06,0.5,32,32,16,32,0.25,0.5,0.5,16,16,2,64,4,4,0.015,< 0.008,< 0.008,< 0.008,MIC [21]: < 0.008 µg/mL; MIC [22]: 2 µg/mL; MIC [23]: 2 µg/mL; MIC [24]: 2 µg/mL; MIC [25]: < 0.008 µg/mL; MIC [26]: < 0.008 µg/mL; MIC [27]: < 0.008 µg/mL; MIC [28]: 0.25 µg/mL; MIC [29]: 0.5 µg/mL; MIC [30]: 1 µg/mL; MIC [31]: 0.125 µg/mL; MIC [32]: 1 µg/mL; ED50 [33]: 12.1 mg/kg; ED50 [36]: 25.4 mg/kg; ED50 [37]: 26 mg/kg; ED50 [38]: 25.3 mg/kg; ED50 [39]: 21.1 mg/kg; ED50 [34]: 11.4 mg/kg; solubility [35]: 3590 µg/mL
CCO/N=C1/CN(c2cc3c(cc2F)c(=O)c(C(=O)O)cn3[C@@H]2C[C@@H]2F)CC1CN (stereo partly drawn),0.25,0.06,0.5,32,16,16,128,0.25,0.25,0.25,16,8,1,32,0.25,1,< 0.008,0.06,0.015,0.06,MIC [21]: 0.06 µg/mL; MIC [22]: 8 µg/mL; MIC [23]: 8 µg/mL; MIC [24]: 8 µg/mL; MIC [25]: 0.06 µg/mL; MIC [26]: 0.25 µg/mL; MIC [27]: 0.06 µg/mL; MIC [28]: 0.5 µg/mL; MIC [29]: 1 µg/mL; MIC [30]: 1 µg/mL; MIC [31]: 0.03 µg/mL; MIC [32]: 0.25 µg/mL
NCC1CN(c2cc3c(cc2F)c(=O)c(C(=O)O)cn3[C@@H]2C[C@@H]2F)C/C1=N/OCc1ccccc1 (stereo partly drawn),0.25,0.06,0.06,64,32,16,64,0.06,0.25,0.25,16,16,16,64,1,1,< 0.008,0.06,< 0.008,0.06,MIC [21]: 0.06 µg/mL; MIC [22]: 4 µg/mL; MIC [23]: 8 µg/mL; MIC [24]: 4 µg/mL; MIC [25]: 0.125 µg/mL; MIC [26]: 0.125 µg/mL; MIC [27]: 0.06 µg/mL; MIC [28]: 0.125 µg/mL; MIC [29]: 1 µg/mL; MIC [30]: 0.5 µg/mL; MIC [31]: 0.06 µg/mL; MIC [32]: 0.25 µg/mL
